The test addresses T1, Human 5-lipoxygenase (Homo sapiens, UniProt P09917).
T1 construct: purchased Cayman 60402; host or cells: insect cells
T1 sequence (P09917 1-674): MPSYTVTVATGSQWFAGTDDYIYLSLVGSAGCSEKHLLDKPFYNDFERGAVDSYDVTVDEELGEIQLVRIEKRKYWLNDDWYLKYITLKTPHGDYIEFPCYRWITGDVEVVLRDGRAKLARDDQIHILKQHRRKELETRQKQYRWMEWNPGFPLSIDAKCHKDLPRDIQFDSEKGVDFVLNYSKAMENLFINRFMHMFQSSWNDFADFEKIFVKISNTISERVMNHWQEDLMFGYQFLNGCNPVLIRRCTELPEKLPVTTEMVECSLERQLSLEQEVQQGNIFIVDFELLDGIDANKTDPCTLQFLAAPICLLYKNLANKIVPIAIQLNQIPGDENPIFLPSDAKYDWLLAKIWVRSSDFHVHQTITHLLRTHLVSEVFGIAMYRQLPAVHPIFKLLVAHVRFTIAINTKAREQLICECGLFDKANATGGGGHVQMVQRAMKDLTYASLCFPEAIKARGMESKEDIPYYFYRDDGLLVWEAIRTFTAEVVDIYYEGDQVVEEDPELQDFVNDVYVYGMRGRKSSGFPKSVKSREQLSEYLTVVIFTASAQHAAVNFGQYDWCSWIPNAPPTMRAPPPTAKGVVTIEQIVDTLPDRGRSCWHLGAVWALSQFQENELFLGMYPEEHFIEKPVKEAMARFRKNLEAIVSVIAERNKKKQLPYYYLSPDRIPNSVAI
Kind of test: Activity of compounds against 5-LO enzyme (LTB4 measurement and/or fluorescence method). Type of test: biochemical. The conditions noted are these: for inhibition at 10 µM: 5-LO, single concentration of 10 uM in duplicate; for pIC50: 6 or 11 point dose response in duplicate. In outline: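 Two read-outs: LTB4 measured by EIA and/or LC/MS/MS with LTB4-d4 standard after 15 min RT compound preincubation with insect-cell 5-LO and a 5 min 37 °C reaction on 3 uM arachidonic acid (0.1 mM ATP, pH 7.4). The room-temperature fluorescence format used 20 uM H2DCFDA, 100 uM ATP, 3 uM arachidonic acid, 5 min; IC50 from 6/11-point curves.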

pIC50: −log10 of the molar value.

One may read the inhibition as the percentage by which the read-out fell short of the control. Low readings indicate a response near the control, high ones a response far below the control. `CCc1nc2ccc(F)cn2c1C(=O)NCc1ccc(OC(F)(F)F)cc1` [compound 120, 2-Ethyl-6-fluoro-N-(4-(trifluoromethoxy)benzyl)imidazo[1,2-a]pyridine-3-carboxamide] came in with an inhibition at 10 µM of 40 to 69%.
In turn, `CCc1nc2ccc(C(F)(F)F)cn2c1C(=O)NCc1ccc(OC(F)(F)F)cc1` [compound 121, 2-Ethyl-N-(4-(trifluoromethoxy)benzyl)-6-(trifluoromethyl)imidazo[1,2-a]pyridine-3-carboxamide] displayed an inhibition at 10 µM of 40 to 69%.
The compound `CCc1nc2ccc(Cl)cn2c1C(=O)NCc1ccc(N2CCC(Oc3ccc(OC(F)(F)F)cc3)CC2)cc1` [compound 122, 6-Chloro-2-ethyl-N-(4-(4-(4-(trifluoromethoxy)phenoxy)piperidin-1-yl)benzyl)imidazo[1,2-a]pyridine-3-carboxamide] yielded an inhibition at 10 µM of 40 to 69%.
As a reminder, the pIC50 is −log10 of the IC50, conventionally taken in molar units. Regarding `CCc1nc2cc(Cl)ccn2c1C(=O)NCc1ccc(N2CCC(Oc3ccc(OC(F)(F)F)cc3)CC2)cc1` [compound 123, 7-Chloro-2-ethyl-N-(4-(4-(4-(trifluoromethoxy)phenoxy)piperidin-1-yl)benzyl)imidazo[1,2-a]pyridine-3-carboxamide], the inhibition at 10 µM is above 69% and the pIC50 was below 4.70.
Take `CCc1nc2ccc(C(F)(F)F)cn2c1C(=O)NCc1ccc(N2CCC(Oc3ccc(OC(F)(F)F)cc3)CC2)cc1` [compound 124, 2-Ethyl-N-(4-(4-(4-(trifluoromethoxy)phenoxy)piperidin-1-yl)benzyl)-6-(trifluoromethyl)imidazo[1,2-a]pyridine-3-carboxamide]: the inhibition at 10 µM was above 69% and the pIC50 is 4.70 to 6.00.
Compound `CCc1nc2cc(Cl)ccn2c1C(=O)NCc1ccc(Oc2ccc(F)cc2)cc1` [compound 129, 7-Chloro-2-ethyl-N-(4-(4-fluorophenoxy)benzyl)imidazo[1,2-a]pyridine-3-carboxamide] registered an inhibition at 10 µM of 40 to 69%.
In turn, `CCc1nc2ccc(Cl)cn2c1C(=O)NCc1ccc(N2CCN(Cc3ccc(F)cc3)CC2)cc1` [compound 130, 6-Chloro-2-ethyl-N-(4-(4-(4-fluorobenzyl)piperazin-1-yl)benzyl)imidazo[1,2-a]pyridine-3-carboxamide] showed an inhibition at 10 µM above 69% and a pIC50 of 4.70 to 6.00.
In the case of `CCc1nc2ccc(Cl)cn2c1C(=O)NCc1ccc(Oc2ccc(OC(F)(F)F)cc2)cc1` [compound 131, 6-Chloro-2-ethyl-N-(4-(4-(trifluoromethoxy)phenoxy)benzyl)imidazo[1,2-a]pyridine-3-carboxamide], the inhibition at 10 µM is 40 to 69%.
`CCc1nc2ccc(Cl)cn2c1C(=O)NCc1ccn(-c2ccc(OC(F)(F)F)cc2)n1` [compound 132, 6-Chloro-2-ethyl-N-((1-(4-(trifluoromethoxy)phenyl)-1H-pyrazol-3-yl)methyl)imidazo[1,2-a]pyridine-3-carboxamide]: the inhibition at 10 µM was in the range of 40 to 69%.
On the same count and under the same terms, the result for `CCc1nc2cc(Cl)ccn2c1C(=O)NCc1ccn(-c2ccc(OC(F)(F)F)cc2)n1` [compound 133, 7-Chloro-2-ethyl-N-((1-(4-(trifluoromethoxy)phenyl)-1H-pyrazol-3-yl)methyl)imidazo[1,2-a]pyridine-3-carboxamide] reads 40 to 69%.
The compound `CCc1nc2ccc(Cl)cn2c1CNc1ccc(OC(F)(F)F)cc1` [compound 144, N-((6-Chloro-2-ethylimidazo[1,2-a]pyridin-3-yl)methyl)-4-(trifluoromethoxy)aniline] came in with an inhibition at 10 µM of 40 to 69%.
Still for that read-out and setting: the result for `CCc1nc2ccc(Cl)cn2c1C(=O)NCC1CCCc2c1cnn2-c1ccc(OC(F)(F)F)cc1` (centres unmarked) [compound 147, 6-Chloro-2-ethyl-N-((1-(4-(trifluoromethoxy)phenyl)-4,5,6,7-tetrahydro-1H-indazol-4-yl)methyl)imidazo[1,2-a]pyridine-3-carboxamide] reads 40 to 69%.
`CCc1nc2ccc(Cl)cn2c1C(=O)NCc1ccc(N2CCN(c3ccc(F)cc3)CC2)cc1` [compound 148, 6-Chloro-2-ethyl-N-(4-(4-(4-fluorophenyl)piperazin-1-yl)benzyl)imidazo[1,2-a]pyridine-3-carboxamide] had an inhibition at 10 µM of 40 to 69% and a pIC50 of 4.70 to 6.00.
In turn, `CCc1nc2ccc(Cl)cn2c1C(=O)NCC1CCCc2c1cnn2-c1ccc(F)cc1` (centres unmarked) [compound 149, 6-Chloro-2-ethyl-N-((1-(4-fluorophenyl)-4,5,6,7-tetrahydro-1H-indazol-4-yl)methyl)imidazo[1,2-a]pyridine-3-carboxamide] gave an inhibition at 10 µM of 40 to 69%.
In the case of `CCc1nc2cc([N+](=O)[O-])ccn2c1C(=O)NCc1ccc(OC(F)(F)F)cc1` [compound 150, 2-Ethyl-7-nitro-N-(4-(trifluoromethoxy)benzyl)imidazo[1,2-a]pyridine-3-carboxamide], the inhibition at 10 µM was in the range of 40 to 69%.
The same measure, in the same setting: as for `CCc1nc2ccc(Cl)cn2c1C(=O)NCc1ccn(-c2ccc(C(F)(F)F)cc2)n1` [compound 151, 6-Chloro-2-ethyl-N-((1-(4-(trifluoromethyl)phenyl)-1H-pyrazol-3-yl)methyl)imidazo[1,2-a]pyridine-3-carboxamide], the figure is below 40%; as for `CCc1nc2cc(Cl)ccn2c1C(=O)NCc1ccn(-c2ccc(C(F)(F)F)cc2)n1` [compound 152, 7-Chloro-2-ethyl-N-((1-(4-(trifluoromethyl)phenyl)-1H-pyrazol-3-yl)methyl)imidazo[1,2-a]pyridine-3-carboxamide], 40 to 69%.
`CCc1nc2ccc(Cl)cn2c1C(=O)NCc1ccn(-c2ccc(F)cc2)n1` [compound 153, 6-Chloro-2-ethyl-N-((1-(4-fluorophenyl)-1H-pyrazol-3-yl)methyl)imidazo[1,2-a]pyridine-3-carboxamide] returned an inhibition at 10 µM below 40%.
Turning to `CCc1nc2cc(Cl)ccn2c1C(=O)NCc1ccn(-c2ccc(F)cc2)n1` [compound 154, 7-Chloro-2-ethyl-N-((1-(4-fluorophenyl)-1H-pyrazol-3-yl)methyl)imidazo[1,2-a]pyridine-3-carboxamide], the inhibition at 10 µM was below 40%.
`CCc1nc2ccc(Cl)cn2c1C(=O)N(C)Cc1ccc(Oc2ccc(F)cc2)cc1` [compound 164, 6-Chloro-2-ethyl-N-(4-(4-fluorophenoxy)benzyl)-N-methylimidazo[1,2-a]pyridine-3-carboxamide] had an inhibition at 10 µM above 69% and a pIC50 of 4.70 to 6.00.
In turn, `CCc1nc2ccc(Cl)cn2c1C(=O)NCc1ccc(N2CCC(Oc3ccc(Cl)cc3)CC2)cc1` [compound 166, 6-Chloro-N-(4-(4-(4-chlorophenoxy)piperidin-1-yl)benzyl)-2-ethylimidazo[1,2-a]pyridine-3-carboxamide] gave an inhibition at 10 µM of 40 to 69%.
With `CCc1nc2cc(Cl)ccn2c1C(=O)NCc1ccc(N2CCC(Oc3ccc(Cl)cc3)CC2)cc1` [compound 167, 7-Chloro-N-(4-(4-(4-chlorophenoxy)piperidin-1-yl)benzyl)-2-ethylimidazo[1,2-a]pyridine-3-carboxamide], the inhibition at 10 µM lay within 40 to 69%.
In turn, `CCc1nc2ccc(Cl)cn2c1C(=O)NCc1ccc(N2CCC(Oc3ccc(C(F)(F)F)cc3)CC2)cc1` [compound 168, 6-Chloro-2-ethyl-N-(4-(4-(4-(trifluoromethyl)phenoxy)piperidin-1-yl)benzyl)imidazo[1,2-a]pyridine-3-carboxamide] yielded an inhibition at 10 µM of 40 to 69%.
Regarding `CCc1nc2cc(Cl)ccn2c1C(=O)NCc1ccc(N2CCC(Oc3ccc(C(F)(F)F)cc3)CC2)cc1` [compound 169, 7-Chloro-2-ethyl-N-(4-(4-(4-(trifluoromethyl)phenoxy)piperidin-1-yl)benzyl)imidazo[1,2-a]pyridine-3-carboxamide], the inhibition at 10 µM fell in the range of 40 to 69%.
`CCc1nc2ccc(Cl)cn2c1C(=O)NCc1ccc(OCc2ccc(OC(F)(F)F)cc2)cc1` [compound 170] returned an inhibition at 10 µM below 40%.
The compound `CCc1nc2cc(Cl)ccn2c1C(=O)NCc1ccc(OCc2ccc(OC(F)(F)F)cc2)cc1` [compound 171] yielded an inhibition at 10 µM below 40%.
In the case of `CCc1nc2ccc(Cl)cn2c1C(=O)NCc1ccc(OCc2ccc(F)cc2)cc1` [compound 172, 6-Chloro-2-ethyl-N-(4-(4-fluorobenzyloxy)benzyl)imidazo[1,2-a]pyridine-3-carboxamide], the inhibition at 10 µM was below 40%.
Consider `CCc1nc2cc(Cl)ccn2c1C(=O)NCc1ccc(OCc2ccc(F)cc2)cc1` [compound 173, 7-Chloro-2-ethyl-N-(4-(4-fluorobenzyloxy)benzyl)imidazo[1,2-a]pyridine-3-carboxamide], for which the inhibition at 10 µM lay in the range of 40 to 69%.
`CCc1nc2ccc(Cl)cn2c1C(=O)NCc1ccc(Nc2ccc(OC(F)(F)F)cc2)cc1` [compound 174, 6-Chloro-2-ethyl-N-(4-(4-(trifluoromethoxy)phenylamino)benzyl)imidazo[1,2-a]pyridine-3-carboxamide] had an inhibition at 10 µM above 69% and a pIC50 of 4.70 to 6.00.

The values above are taken from US9029389B2 (Institut Pasteur Korea, priority 2011, dated 2015).
